# Reference: article PMC11322497 (Frontiers in Pharmacology, 2024)
# Key:
# [1] = Ex vivo plasma protein binding, terminal bleed after 5 days of acute dosing; assay type: in vitro ADME; conditions: rabbit, plasma from dosed rabbits (ex vivo), oral, 30 mg/kg, terminal bleed after 5 days 30 mg/kg, week 12
# mouse galectin-3 = target: mouse galectin-3; design: method as in Zetterberg et al., 2022; conditions: ref Zetterberg et al., 2022; read-out: binding affinity for mouse galectin-3; cited from earlier work
# [2] = test system: high fat diet (HFD) rabbit model of metabolic-associated steatohepatitis (MASH); assay: HFD rabbit study, prolonged 4-week treatment: fibrosis and inflammation markers mRNA expression; assay type: in vivo, New Zealand White rabbits; conditions: HFD rabbits, weeks 9–12, mean±SD, n=7
# Method: After 1 week (W) of RD, the animals (n = 44) were randomly assigned to the following groups (Table 1B): • Control rabbits continued to receive a RD for 12 weeks and were treated with vehicle for 5 days a week (days 1–5, p.o.) during the last 4 weeks before culling (RD + 4W Veh group); • Rabbits received a HFD for 8 weeks and were culled (HFD 8W group); • Rabbits received a HFD for 12 weeks and were treated with vehicle for 5 days a week (days 1–5, p.o.) during the last 4 weeks before culling (HFD+4W Veh group); • Rabbits received a HFD for 12 weeks and were treated with GB1211 (0.3 mg/kg) for 5 days a week (days 1–5, p.o.) during the last 4 weeks before culling (HFD + 4W 0.3 mg group); • Rabbits received a HFD for 12 weeks and were treated with GB1211 (1.0 mg/kg) for 5 days a week (days 1–5, p.o.) during the last 4 weeks before culling (HFD + 4W 1.0 mg group); • Rabbits received a HFD for 12 weeks and were treated with GB1211 (5.0 mg/kg) for 5 days a week (days 1–5, p.o.) during the last 4 weeks before culling (HFD + 4W 5.0 mg group).
# TRIzol reagent (Life Technologies, Paisley, United Kingdom) and/or RNeasy Mini Kit (Qiagen, Hilden, Germany) were used to isolate total RNA from rabbit liver specimens. RNA concentration and quality were measured using a Nanodrop ND-1000 (Thermo Fisher Scientific) at 260 nm and 280 nm. The OD 260/280 absorbance ratios were between 2.0 and 2.1 for all samples, to confirm RNA integrity and purification. cDNA synthesis was carried out using the iScript™ cDNA Synthesis Kit (Bio-Rad Laboratories, Hercules, CA), with 100 ng of mRNA in 20 µL reaction volume in accordance with the following protocol: 5 min at 25°C, 20 min at 46°C and 5 min at 85°C, followed by refrigeration at 4°C.
# Semi-quantitative real-time RT-PCR (qRT-PCR) amplification and detection was performed with SsoAdvanced™ universal SYBR® Supermix and a CFX96 Two-Color Real-Time PCR Detection System (both Bio-Rad Laboratories) with the following thermal cycler conditions: 40 cycles at 95°C for 15 s and 60°C for 1 min. Specific PCR primers for rabbit target genes were designed on sequences available at the National Center for Biotechnology Information GenBank (http://www.ncbi.nlm.nih.gov) or Ensemble Genome (http://www.ensembl.org).
# The 18S ribosomal RNA subunit was quantified with a predeveloped assay (Hs99999901_s1, Life Technologies) and used as the housekeeping gene for the relative quantitation of the target genes based on the comparative threshold cycle (Ct) 2^−ΔΔCt method ([Livak and Schmittgen, 2001]), with some modifications. In detail, we used the vehicle control groups as the calibrator in each analysis, so that the calculations would provide the fold-change of the other groups relative to controls.
structure (smiles),measurement,setting,value
OC[C@H]1O[C@H](Sc2cncc(Br)c2)[C@H](O)[C@@H](n2cc(-c3cc(F)c(F)c(F)c3)nn2)[C@H]1O [selvigaltin],fraction unbound at 5 days,[1]; HFD rabbits,0.929
same,fraction unbound at 5 days,[1]; RD rabbits,0.946
same,Kd,mouse galectin-3,770 nM
same,CD4 liver mRNA expression,[2]; 0.3 mg/kg p.o.,1.96 ± 0.51 fold-change vs. RD+Veh
same,COL1A1 liver mRNA expression,[2]; 0.3 mg/kg p.o.,45.14 ± 43.26 fold-change vs. RD+Veh
same,COL3A1 liver mRNA expression,[2]; 0.3 mg/kg p.o.,12.38 ± 9.89 fold-change vs. RD+Veh
same,COX-2 liver mRNA expression,[2]; 0.3 mg/kg p.o.,8.60 ± 4.94 fold-change vs. RD+Veh
same,EDN1 liver mRNA expression,[2]; 0.3 mg/kg p.o.,1.08 ± 0.33 fold-change vs. RD+Veh
same,EDNRA liver mRNA expression,[2]; 0.3 mg/kg p.o.,3.66 ± 2.05 fold-change vs. RD+Veh
same,EDNRB liver mRNA expression,[2]; 0.3 mg/kg p.o.,1.60 ± 0.42 fold-change vs. RD+Veh
same,FN1 liver mRNA expression,[2]; 0.3 mg/kg p.o.,1.79 ± 0.76 fold-change vs. RD+Veh
same,FOXP3 liver mRNA expression,[2]; 0.3 mg/kg p.o.,2.85 ± 1.40 fold-change vs. RD+Veh
same,IL1β liver mRNA expression,[2]; 0.3 mg/kg p.o.,1.33 ± 0.37 fold-change vs. RD+Veh
same,IL2 liver mRNA expression,[2]; 0.3 mg/kg p.o.,2.98 ± 1.16 fold-change vs. RD+Veh
same,IL6 liver mRNA expression,[2]; 0.3 mg/kg p.o.,2.43 ± 1.89 fold-change vs. RD+Veh
same,LGALS3 liver mRNA expression,[2]; 0.3 mg/kg p.o.,63.90 ± 24.46 fold-change vs. RD+Veh
same,MCP1 liver mRNA expression,[2]; 0.3 mg/kg p.o.,7.70 ± 6.93 fold-change vs. RD+Veh
same,PAI-1 liver mRNA expression,[2]; 0.3 mg/kg p.o.,4.91 ± 1.83 fold-change vs. RD+Veh
same,RAGE liver mRNA expression,[2]; 0.3 mg/kg p.o.,1.99 ± 1.10 fold-change vs. RD+Veh
same,SNAI1 liver mRNA expression,[2]; 0.3 mg/kg p.o.,2.05 ± 2.05 fold-change vs. RD+Veh
same,SNAI2 liver mRNA expression,[2]; 0.3 mg/kg p.o.,2.28 ± 1.03 fold-change vs. RD+Veh
same,TGFβ1 liver mRNA expression,[2]; 0.3 mg/kg p.o.,4.06 ± 1.62 fold-change vs. RD+Veh
same,TGFβ3 liver mRNA expression,[2]; 0.3 mg/kg p.o.,1.73 ± 0.80 fold-change vs. RD+Veh
same,TLR4 liver mRNA expression,[2]; 0.3 mg/kg p.o.,3.89 ± 1.45 fold-change vs. RD+Veh
same,TNFα liver mRNA expression,[2]; 0.3 mg/kg p.o.,4.39 ± 0.96 fold-change vs. RD+Veh
same,αSMA liver mRNA expression,[2]; 0.3 mg/kg p.o.,4.64 ± 4.05 fold-change vs. RD+Veh
same,CD4 liver mRNA expression,[2]; 1.0 mg/kg p.o.,1.33 ± 0.66 fold-change vs. RD+Veh
same,COL1A1 liver mRNA expression,[2]; 1.0 mg/kg p.o.,9.00 ± 6.03 fold-change vs. RD+Veh
same,COL3A1 liver mRNA expression,[2]; 1.0 mg/kg p.o.,3.49 ± 2.11 fold-change vs. RD+Veh
same,COX-2 liver mRNA expression,[2]; 1.0 mg/kg p.o.,6.14 ± 3.84 fold-change vs. RD+Veh
same,EDN1 liver mRNA expression,[2]; 1.0 mg/kg p.o.,0.99 ± 0.28 fold-change vs. RD+Veh
same,EDNRA liver mRNA expression,[2]; 1.0 mg/kg p.o.,2.13 ± 1.20 fold-change vs. RD+Veh
same,EDNRB liver mRNA expression,[2]; 1.0 mg/kg p.o.,1.58 ± 0.31 fold-change vs. RD+Veh
same,FN1 liver mRNA expression,[2]; 1.0 mg/kg p.o.,1.06 ± 0.22 fold-change vs. RD+Veh
same,FOXP3 liver mRNA expression,[2]; 1.0 mg/kg p.o.,1.39 ± 0.43 fold-change vs. RD+Veh
same,IL1β liver mRNA expression,[2]; 1.0 mg/kg p.o.,1.18 ± 0.45 fold-change vs. RD+Veh
same,IL2 liver mRNA expression,[2]; 1.0 mg/kg p.o.,1.85 ± 1.16 fold-change vs. RD+Veh
same,IL6 liver mRNA expression,[2]; 1.0 mg/kg p.o.,0.58 ± 0.22 fold-change vs. RD+Veh
same,LGALS3 liver mRNA expression,[2]; 1.0 mg/kg p.o.,50.04 ± 15.84 fold-change vs. RD+Veh
same,MCP1 liver mRNA expression,[2]; 1.0 mg/kg p.o.,4.23 ± 1.50 fold-change vs. RD+Veh
same,PAI-1 liver mRNA expression,[2]; 1.0 mg/kg p.o.,4.93 ± 2.25 fold-change vs. RD+Veh
same,RAGE liver mRNA expression,[2]; 1.0 mg/kg p.o.,1.14 ± 0.36 fold-change vs. RD+Veh
same,SNAI1 liver mRNA expression,[2]; 1.0 mg/kg p.o.,1.30 ± 1.21 fold-change vs. RD+Veh
same,SNAI2 liver mRNA expression,[2]; 1.0 mg/kg p.o.,1.15 ± 0.42 fold-change vs. RD+Veh
same,TGFβ1 liver mRNA expression,[2]; 1.0 mg/kg p.o.,2.87 ± 1.14 fold-change vs. RD+Veh
same,TGFβ3 liver mRNA expression,[2]; 1.0 mg/kg p.o.,1.20 ± 0.54 fold-change vs. RD+Veh
same,TLR4 liver mRNA expression,[2]; 1.0 mg/kg p.o.,3.63 ± 0.90 fold-change vs. RD+Veh
same,TNFα liver mRNA expression,[2]; 1.0 mg/kg p.o.,3.67 ± 2.21 fold-change vs. RD+Veh
same,αSMA liver mRNA expression,[2]; 1.0 mg/kg p.o.,1.75 ± 1.34 fold-change vs. RD+Veh
same,CD4 liver mRNA expression,[2]; 5.0 mg/kg p.o.,2.60 ± 1.97 fold-change vs. RD+Veh
same,COL1A1 liver mRNA expression,[2]; 5.0 mg/kg p.o.,25.20 ± 23.86 fold-change vs. RD+Veh
same,COL3A1 liver mRNA expression,[2]; 5.0 mg/kg p.o.,7.26 ± 6.59 fold-change vs. RD+Veh
same,COX-2 liver mRNA expression,[2]; 5.0 mg/kg p.o.,13.87 ± 22.12 fold-change vs. RD+Veh
same,EDN1 liver mRNA expression,[2]; 5.0 mg/kg p.o.,1.09 ± 0.51 fold-change vs. RD+Veh
same,EDNRA liver mRNA expression,[2]; 5.0 mg/kg p.o.,3.04 ± 2.38 fold-change vs. RD+Veh
same,EDNRB liver mRNA expression,[2]; 5.0 mg/kg p.o.,2.49 ± 2.19 fold-change vs. RD+Veh
same,FN1 liver mRNA expression,[2]; 5.0 mg/kg p.o.,1.51 ± 0.74 fold-change vs. RD+Veh
same,FOXP3 liver mRNA expression,[2]; 5.0 mg/kg p.o.,3.57 ± 1.87 fold-change vs. RD+Veh
same,IL1β liver mRNA expression,[2]; 5.0 mg/kg p.o.,1.32 ± 0.62 fold-change vs. RD+Veh
same,IL2 liver mRNA expression,[2]; 5.0 mg/kg p.o.,3.33 ± 2.66 fold-change vs. RD+Veh
same,IL6 liver mRNA expression,[2]; 5.0 mg/kg p.o.,1.59 ± 1.33 fold-change vs. RD+Veh
same,LGALS3 liver mRNA expression,[2]; 5.0 mg/kg p.o.,67.63 ± 53.87 fold-change vs. RD+Veh
same,MCP1 liver mRNA expression,[2]; 5.0 mg/kg p.o.,5.47 ± 2.52 fold-change vs. RD+Veh
same,PAI-1 liver mRNA expression,[2]; 5.0 mg/kg p.o.,5.06 ± 3.07 fold-change vs. RD+Veh
same,RAGE liver mRNA expression,[2]; 5.0 mg/kg p.o.,1.73 ± 0.67 fold-change vs. RD+Veh
same,SNAI1 liver mRNA expression,[2]; 5.0 mg/kg p.o.,2.32 ± 1.38 fold-change vs. RD+Veh
same,SNAI2 liver mRNA expression,[2]; 5.0 mg/kg p.o.,1.68 ± 0.79 fold-change vs. RD+Veh
same,TGFβ1 liver mRNA expression,[2]; 5.0 mg/kg p.o.,3.96 ± 2.80 fold-change vs. RD+Veh
same,TGFβ3 liver mRNA expression,[2]; 5.0 mg/kg p.o.,1.87 ± 0.71 fold-change vs. RD+Veh
same,TLR4 liver mRNA expression,[2]; 5.0 mg/kg p.o.,3.90 ± 1.30 fold-change vs. RD+Veh
same,TNFα liver mRNA expression,[2]; 5.0 mg/kg p.o.,3.80 ± 1.84 fold-change vs. RD+Veh
same,αSMA liver mRNA expression,[2]; 5.0 mg/kg p.o.,3.17 ± 2.57 fold-change vs. RD+Veh
